Laboratory results reported in patent publication US12102087B2 (priority 2012, dated 2024).
Read-outs that look alike come from different tables or passages of the source.

Legend:
Assay type in all cases: in vivo
Alternaria solani = assay: Alternaria test (tomatoes)/preventive; settings: Alternaria solani, 72 h, read-out: Efficacy in % found; for pest or weed control at 25 ppm: application rate 25 ppm a.i.; for pest or weed control at 100 ppm: application rate 100 ppm a.i.
Excerpt: (§1) A synergistic effect of fungicides is always present when the fungicidal activity of the active compound combinations exceeds the total of the activities of the active compounds when applied individually. The expected activity for a given combination of two active compounds can be calculated as follows (cf. Colby, S. R., “Calculating Synergistic and Antagonistic Responses of Herbicide Combinations”, Weeds 1967, 15, 20-22):
(§2) If • X is the efficacy when active compound A is applied at an application rate of m ppm (or g/ha), • Y is the efficacy when active compound B is applied at an application rate of n ppm (or g/ha), • E is the efficacy when the active compounds A and B are applied at application rates of m and n ppm (or g/ha), respectively, and
Alternaria Test (Tomatoes)/Preventive • Solvent: 24.5 parts by weight of acetone • 24.5 parts by weight of dimethylacetamide • Emulsifier: 1 part by weight of alkylaryl polyglycol ether
(§3) To produce a suitable preparation of active compound, 1 part by weight of active compound is mixed with the stated amounts of solvent and emulsifier, and the concentrate is diluted with water to the desired concentration.
(§4) To test for preventive activity, young plants are sprayed with the preparation of active compound at the stated rate of application. After the spray coating has dried on, the plants are inoculated with an aqueous spore suspension of Alternaria solani. The plants are then placed in an incubation cabinet at approximately 20° C. and a relative atmospheric humidity of 100%.
The test is evaluated 3 days after the inoculation. 0% means an efficacy which corresponds to that of the untreated control while an efficacy of 100% means that no disease is observed.

Phytophthora infestans = assay: whole plant or invertebrate; settings: Phytophthora infestans, 72 h; for pest or weed control at 0.005 ppm: application rate 0.005 ppm a.i.; for pest or weed control at 0.01 ppm: application rate 0.01 ppm a.i.; for pest or weed control at 0.0025 ppm: application rate 0.0025 ppm a.i.
Sphaerotheca fuliginea = assay: Sphaerotheca test (cucumbers)/preventive
Excerpt: as §1, §2
Sphaerotheca Test (Cucumbers)/Preventive • Solvent: 24.5 parts by weight of acetone • 24.5 parts by weight of dimethylacetamide • Emulsifier: 1 part by weight of alkylaryl polyglycol ether
as §3
as §4, with “Sphaerotheca fuliginea.” for “Alternaria solani.”, “a greenhouse” for “an incubation cabinet”, “23°” for “20°”, “approximately 70%.” for “100%.”
The test is evaluated 7 days after the inoculation. 0% means an efficacy which corresponds to that of the untreated control, while an efficacy of 100% means that no disease is observed.

Venturia inaequalis = assay: Venturia test (apples)/preventive; settings: Venturia inaequalis, 240 h, read-out: Efficacy in % found; for pest or weed control at 50 ppm: application rate 50 ppm a.i.; for pest or weed control at 100 ppm: application rate 100 ppm a.i.
Excerpt: as §1, §2
Venturia test (apples)/preventive • Solvent: 24.5 parts by weight of acetone • 24.5 parts by weight of dimethylacetamide • Emulsifier: 1 part by weight of alkylaryl polyglycol ether
as §3
as §4, with “conidia” for “spore”, “the causal agent of apple scab (Venturia inaequalis) and” for “Alternaria solani. The plants are”, “remain for 1 day” for “placed”
The plants are then placed in a greenhouse at approximately 21° C. and a relative atmospheric humidity of approximately 90%.
The test is evaluated 10 days after the inoculation. 0% means an efficacy which corresponds to that of the untreated control, while an efficacy of 100% means that no disease is observed.

[1] = read-out: Efficacy in % found, Table 3
[2] = read-out: Efficacy in % found, Table 4
[3] = read-out: Efficacy in % found, Table 5
[4] = read-out: Efficacy in % found, Table 6
[5] = Table 7, application rate 100 ppm a.i.

| Compound | pest or weed control at 25 ppm (Alternaria solani; Table 1) | pest or weed control at 100 ppm (Alternaria solani; Table 2) | pest or weed control at 0.005 ppm (Phytophthora infestans; [2]) | pest or weed control at 0.01 ppm (Phytophthora infestans; [2]) | pest or weed control at 0.0025 ppm (Phytophthora infestans; [3]) | pest or weed control at 0.0025 ppm (Phytophthora infestans; [4]) | Efficacy in % found (Sphaerotheca fuliginea; [5]) | pest or weed control at 50 ppm (Venturia inaequalis; Table 10) | pest or weed control at 100 ppm (Venturia inaequalis; Table 10) | pest or weed control at 50 ppm (Venturia inaequalis; Table 11) | pest or weed control at 100 ppm (Venturia inaequalis; Table 11) | pest or weed control at 100 ppm (Venturia inaequalis; Table 12) | pest or weed control at 100 ppm (Venturia inaequalis; Table 13) | other results |
| --- | --- | --- | --- | --- | --- | --- | --- | --- | --- | --- | --- | --- | --- | --- |
| CS(=O)(=O)Oc1ccccc1C1CC(c2csc(C3CCN(C(=O)Cn4nc(C(F)F)cc4C(F)F)CC3)n2)=NO1 (stereo not shown) [(I-1), 2-{3-[2-(1-{[3,5-bis(difluoromethyl)-1H-pyrazol-1-yl]acetyl}piperidin-4-yl)-1,3-thiazol-4-yl]-4,5-dihydro-1,2-oxazol-5-yl}phenyl methanesulfonate] | 20% | 34% | 67% | 77% | 52% | 48% | 19% | 0% | 0% | 4% | 13% | 21% | 0% | pest or weed control at 0.005 ppm (Phytophthora infestans; [1]): 82%; Efficacy in % found (Sphaerotheca fuliginea; Table 8, application rate 100 ppm a.i.): 0%; Efficacy in % found (Sphaerotheca fuliginea; Table 9, application rate 100 ppm a.i.): 38% |
| CS(=O)(=O)Oc1cccc(Cl)c1C1CC(c2csc(C3CCN(C(=O)Cn4nc(C(F)F)cc4C(F)F)CC3)n2)=NO1 (stereo not shown) [(I-3), 2-{3-[2-(1-{[3,5-bis(difluoromethyl)-1H-pyrazol-1-yl]acetyl}piperidin-4-yl)-1,3-thiazol-4-yl]-4,5-dihydro-1,2-oxazol-5-yl}-3-chlorophenyl methanesulfonate] | 0% | 36% | 5% | 28% | 59% | 79% | 43% | 0% | 0% | 0% | 15% | 0% | 0% | pest or weed control at 25 ppm (Alternaria solani; Table 2): 30%; pest or weed control at 0.0025 ppm (Phytophthora infestans; [1]): 65%; pest or weed control at 0.01 ppm (Phytophthora infestans; [3]): 87%; Efficacy in % found (Sphaerotheca fuliginea; Table 8, application rate 50 ppm a.i.): 19%; Efficacy in % found (Sphaerotheca fuliginea; Table 9, application rate 50 ppm a.i.): 29% |
